Tests used:
[1] = tested on: xenotransplanted primary human tumours; experiment: Zebrafish embryo xenotransplantation of pretreated fragments of resected primary human tumours; format: in vivo; details: for Migration <5 / Migration 5 to 20 / Migration >20 / total >5 / total >5, final line, number: number of embryos; for total >5, final line, per cent / total >5, final line, number: whole experiment; for presence of micro-metastases at 3dpl, Migration 5 to 20: number in square brackets
Experimental: Zebrafish (Danio rerio) (Tuebingen line, AIB strain (Albinos) and Tg (fli1:eGFP) were handled in compliance with local animal care regulations and standard protocols of the Netherlands and Germany. Fish were kept at 28°C in aquaria with day/night light cycles (10 h dark versus 14 h light periods). The developing embryos were kept in an incubator at constant temperatures.
Cells were stained with CM-Dil (red fluorescence) at a 1:1000 dilution according to the manufacturers protocol (Vybrant, Invitrogen). Cells were suspended in 67% DPBS for injection into embryos. 2dpf zebrafish embryos were dechorionated and tranquilized with tricaine (Sigma). An injection needle (15µm diameter) with a manual injector (Eppendorf; Celltram Vario) was used to inject ∼200 cells into the yolk sac of 2dpf zebrafish embryos. On average 80 embryos were injected for each treatment and embryos with detectable cell scatter 2 h after the transfer (and therefore presumably due to the transfer procedure) were excluded from further analysis. Presence of cells was checked after 2 h incubation at 31°C and embryos were subsequently kept at 35°C. We defined metastasis based on the number of fluorescent cells that were detected outside the yolk sac 2 days after the transfer. Presence of 5 or more cells was considered "metastasised" and percentages of metastasised fish in each experiment were counted. The occurence of micro-metastasis is indicated by cell clusters of ≥4 cells presumably originating from cell division. PaTu-S cells and ASPC1 cells were transfected ON with indicated concentrations of miR-10a siRNA in the presence of ICA-Fectin TM442 (Eurogentec, Belgium). Whole cell lysates were prepared 36h post-transfection and 40 µg of total lysates were separated on 7.5% PAA-gels and blotted with anti E-cadherin, α-catenin, β-catenin (all mAbs, Transduction Labs) and actin antibodies (mAb Sigma-Aldrich, Germany).
Human resection specimens were obtained at the Universitätsklinikum Greifswald according to local ethical guidelines and after obtaining informed patient consent. Tumour tissue was cut into small pieces using a scalpel blade. Tissue fragments were then washed with 67% DPBS and stained with 1:500 CM-Dil. Stained tissue fragments of approximal ^1/5 to ½ the size of the yolk sac were transferred with a glass transplantation needle into the yolk. After 2 h at 31 °C the embryos were checked that the yolk had sealed itself and the embryos were incubated at 35°C for the remainder of the experiment.
Small tissue fragments from two well differentiated ductal adenocarcinoma resection specimen of the Pancreas head (2 and 3) were incubated with miR-10a Morpholino or RARα inhibitor and, following staining with carbocyanine dye (CM-Dil), transplanted into zebrafish embryos (Controls: DMSO and control-Morpholino). Formation of micrometastases in the fish was assessed at 3 dpi by analysis of present cell aggregates (including daughter cells) outside the yolk sac. […] Tumour grading and classification was done according to histopathological examination.

[2] = target: T1, RARα (Homo sapiens, UniProt P10276); details: literature references 14, 15; read-out: 50% inhibition; cited from earlier work
T1 sequence (P10276 1-462): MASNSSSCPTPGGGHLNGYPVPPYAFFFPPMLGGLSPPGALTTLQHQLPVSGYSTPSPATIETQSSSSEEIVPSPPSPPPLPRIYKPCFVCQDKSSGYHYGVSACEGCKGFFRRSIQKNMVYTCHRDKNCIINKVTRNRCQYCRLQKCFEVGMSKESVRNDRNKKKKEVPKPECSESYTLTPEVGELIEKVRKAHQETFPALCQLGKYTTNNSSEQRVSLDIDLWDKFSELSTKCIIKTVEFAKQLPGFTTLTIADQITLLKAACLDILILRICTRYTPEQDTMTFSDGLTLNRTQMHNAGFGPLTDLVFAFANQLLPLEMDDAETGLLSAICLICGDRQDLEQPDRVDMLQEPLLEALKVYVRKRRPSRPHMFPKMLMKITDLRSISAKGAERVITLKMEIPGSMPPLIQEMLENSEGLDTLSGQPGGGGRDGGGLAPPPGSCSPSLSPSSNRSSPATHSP

Q: With `CCCCCCCOc1cc2c(cc1/C(C)=C/c1ccc(C(=O)O)cc1)C(C)(C)CCS2(=O)=O` [Ro-41-5253, Benzoic acid, 4-(2-(7-(heptyloxy)-3,4-dihydro-4,4-dimethyl-2H-1-benzothiopyran-6-yl)-1-propenyl)-, S,S-dioxide, (E)] as the compound, how does the “Migration <5” value ([1]; Patient 1 (adenocarcinoma of the ampulla vateri, G3), Day 1) read?
A: Its value is 1.

Q: What about the “Migration 5 to 20” value ([1]; Patient 1, Day 1) of the same compound?
A: The value was 2.

Q: What about the “Migration >20” value ([1]; Patient 1, Day 1) of the same compound?
A: The value was 0.

Q: And the “total >5” value ([1]; Patient 1, Day 1)?
A: Its value is 2.

Q: What about the “Migration 5 to 20” value ([1]; Patient 1, Day 2) of the same compound?
A: The value was 2.

Q: And the “Migration <5” value ([1]; Patient 1, Day 2)?
A: Its value is 0.

Q: And the “Migration >20” value ([1]; Patient 1, Day 2)?
A: Its value is 0.

Q: What about the “total >5” value ([1]; Patient 1, Day 2) of the same compound?
A: The value was 2.

Q: What about the “Migration 5 to 20” value ([1]; Patient 1, Day 3) of the same compound?
A: Its value is 1.

Q: And the “Migration <5” value ([1]; Patient 1, Day 3)?
A: The value was 0.

Q: And the “Migration >20” value ([1]; Patient 1, Day 3)?
A: The value was 0.

Q: What about the “total >5” value ([1]; Patient 1, Day 3) of the same compound?
A: Its value is 2.

Q: What about the “total >5, final line, per cent” value ([1]; Patient 1) of the same compound?
A: The value was 3.1%.

Q: What about the “total >5, final line, number” value ([1]; Patient 1) of the same compound?
A: Its value is 2.

Q: What about the “Migration <5” value ([1]; Patient 2 (well-differentiated adenocarcinoma of the pancreas, G2), Day 1) of the same compound?
A: The value was 1.

Q: What about the “Migration 5 to 20” value ([1]; Patient 2, Day 1) of the same compound?
A: Its value is 3.

Q: What about the “Migration >20” value ([1]; Patient 2, Day 1) of the same compound?
A: The value was 0.

Q: What about the “total >5” value ([1]; Patient 2, Day 1) of the same compound?
A: The value was 3.

Q: And the “Migration 5 to 20” value ([1]; Patient 2, Day 2)?
A: The value was 2.

Q: What about the “Migration <5” value ([1]; Patient 2, Day 2) of the same compound?
A: Its value is 1.

Q: What about the “Migration >20” value ([1]; Patient 2, Day 2) of the same compound?
A: The value was 0.

Q: And the “total >5” value ([1]; Patient 2, Day 2)?
A: The value was 2.

Q: And the “Migration 5 to 20” value ([1]; Patient 2, Day 3)?
A: Its value is 1.

Q: What about the “Migration <5” value ([1]; Patient 2, Day 3) of the same compound?
A: Its value is 0.

Q: What about the “Migration >20” value ([1]; Patient 2, Day 3) of the same compound?
A: Its value is 0.

Q: And the “total >5” value ([1]; Patient 2, Day 3)?
A: The value was 1.

Q: What about the “total >5, final line, per cent” value ([1]; Patient 2) of the same compound?
A: Its value is 4.3%.

Q: What about the “total >5, final line, number” value ([1]; Patient 2) of the same compound?
A: Its value is 3.

Q: And the “Migration <5” value ([1]; Patient 3 (well-differentiated adenocarcinoma of the pancreas, G2), Day 1)?
A: Its value is 0.

Q: And the “Migration 5 to 20” value ([1]; Patient 3, Day 1)?
A: The value was 3.

Q: What about the “Migration >20” value ([1]; Patient 3, Day 1) of the same compound?
A: The value was 0.

Q: What about the “total >5” value ([1]; Patient 3, Day 1) of the same compound?
A: Its value is 3.

Q: What about the “Migration 5 to 20” value ([1]; Patient 3, Day 2) of the same compound?
A: The value was 3.

Q: What about the “Migration <5” value ([1]; Patient 3, Day 2) of the same compound?
A: Its value is 0.

Q: And the “Migration >20” value ([1]; Patient 3, Day 2)?
A: Its value is 0.

Q: And the “total >5” value ([1]; Patient 3, Day 2)?
A: The value was 3.

Q: What about the “Migration 5 to 20” value ([1]; Patient 3, Day 3) of the same compound?
A: The value was 3.

Q: What about the “Migration <5” value ([1]; Patient 3, Day 3) of the same compound?
A: The value was 0.

Q: What about the “Migration >20” value ([1]; Patient 3, Day 3) of the same compound?
A: Its value is 0.

Q: What about the “total >5” value ([1]; Patient 3, Day 3) of the same compound?
A: The value was 3.

Q: And the “total >5, final line, per cent” value ([1]; Patient 3)?
A: The value was 4.5%.

Q: And the “total >5, final line, number” value ([1]; Patient 3)?
A: The value was 3.

Q: What about the “total >5 [%]” value ([1]; Table 2, Patient 1) of the same compound?
A: The value was 3.1%.

Q: What about the “presence of micro-metastases at 3dpl, Migration 5 to 20” value (“presence of micro-metastases at 3dpl” below) ([1]; Table 2, Patient 1) of the same compound?
A: Its value is 0.

Q: What about the “Migration 5 to 20” value ([1]; Table 2, Patient 1) of the same compound?
A: The value was 2.

Q: What about the “Migration <5” value ([1]; Table 2, Patient 1) of the same compound?
A: The value was 0.

Q: What about the “Migration >20” value ([1]; Table 2, Patient 1) of the same compound?
A: The value was 0.

Q: And the “total >5 [%]” value ([1]; Table 2, Patient 2)?
A: The value was 4.3% 4.4x10^-5.

Q: What about the “presence of micro-metastases at 3dpl” value ([1]; Table 2, Patient 2) of the same compound?
A: The value was 0.

Q: What about the “Migration 5 to 20” value ([1]; Table 2, Patient 2) of the same compound?
A: Its value is 3.

Q: What about the “Migration <5” value ([1]; Table 2, Patient 2) of the same compound?
A: Its value is 1.

Q: What about the “Migration >20” value ([1]; Table 2, Patient 2) of the same compound?
A: The value was 0.

Q: What about the “total >5 [%]” value ([1]; Table 2, Patient 3) of the same compound?
A: The value was 4.5%.

Q: And the “presence of micro-metastases at 3dpl” value ([1]; Table 2, Patient 3)?
A: Its value is 0.

Q: And the “Migration 5 to 20” value ([1]; Table 2, Patient 3)?
A: Its value is 3.

Q: And the “Migration <5” value ([1]; Table 2, Patient 3)?
A: Its value is 0.

Q: What about the “Migration >20” value ([1]; Table 2, Patient 3) of the same compound?
A: Its value is 0.

Q: What about the “reduction of invasiveness and metastatic behaviour” value ([1]; compared to the DMSO treated control tissue of the same tumour specimen) of the same compound?
A: Its value is over 95%.

Q: And the “metastatic behavior of treated specimen” value ([1]; p< 0.001, student t-test)?
A: Its value is “significant decrease”.

Q: What about the IC50 [2] of the same compound?
A: The IC50 was 60 nM.
